Reference: ChEMBL document CHEMBL1201862, “PubChem BioAssay data set” (2004)
Calls of active or inactive are those of the source.

Columns and labels:
[1] = Luminescence-based cell-based high throughput dose response assay to identify activators of the DAF-12 from the parasite S. stercoralis (ssDAF-12).; assay type: functional
[2] = biological target: T1, Oxysterols receptor LXR-beta (Homo sapiens, UniProt P55055); assay: LXR agonists, Gal4 luciferase reporter, dose response, counter-screen for ssDAF-12 agonist project, cell-based, luminescence, HEK293, S. stercoralis campaign (AID 720737); assay type: functional; details: read-out: IC50 (the source's name)
T1 sequence (P55055 whole entry): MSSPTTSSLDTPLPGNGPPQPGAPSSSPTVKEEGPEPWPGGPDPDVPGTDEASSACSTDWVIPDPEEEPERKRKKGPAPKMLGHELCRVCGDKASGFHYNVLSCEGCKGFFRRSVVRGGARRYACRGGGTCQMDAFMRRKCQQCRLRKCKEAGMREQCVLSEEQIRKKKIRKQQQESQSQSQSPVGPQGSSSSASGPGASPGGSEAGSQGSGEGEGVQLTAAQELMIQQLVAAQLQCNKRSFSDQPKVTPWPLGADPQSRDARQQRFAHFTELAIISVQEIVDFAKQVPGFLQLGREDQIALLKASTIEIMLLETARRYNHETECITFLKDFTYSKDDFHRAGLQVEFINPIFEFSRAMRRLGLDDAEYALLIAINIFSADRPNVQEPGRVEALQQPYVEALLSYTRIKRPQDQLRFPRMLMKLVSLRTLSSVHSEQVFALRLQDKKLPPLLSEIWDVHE

[3] = A cytotoxicity screen of small molecule inhibitors of the PhoP region in Salmonella typhi identified in the primary screen. [Related pubchem assays: 1850, 1864, 1985 ]; assay type: functional
Estrogen receptor beta [4] = biological target: T2, Estrogen receptor beta (Homo sapiens, UniProt Q92731);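 also: recombinant ER-beta bound to coactivator SRC1 peptide in presence of estradiol agonist; inhibitors block coactivator peptide binding and lower the FRET signal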
T2 sequence (Q92731 whole entry): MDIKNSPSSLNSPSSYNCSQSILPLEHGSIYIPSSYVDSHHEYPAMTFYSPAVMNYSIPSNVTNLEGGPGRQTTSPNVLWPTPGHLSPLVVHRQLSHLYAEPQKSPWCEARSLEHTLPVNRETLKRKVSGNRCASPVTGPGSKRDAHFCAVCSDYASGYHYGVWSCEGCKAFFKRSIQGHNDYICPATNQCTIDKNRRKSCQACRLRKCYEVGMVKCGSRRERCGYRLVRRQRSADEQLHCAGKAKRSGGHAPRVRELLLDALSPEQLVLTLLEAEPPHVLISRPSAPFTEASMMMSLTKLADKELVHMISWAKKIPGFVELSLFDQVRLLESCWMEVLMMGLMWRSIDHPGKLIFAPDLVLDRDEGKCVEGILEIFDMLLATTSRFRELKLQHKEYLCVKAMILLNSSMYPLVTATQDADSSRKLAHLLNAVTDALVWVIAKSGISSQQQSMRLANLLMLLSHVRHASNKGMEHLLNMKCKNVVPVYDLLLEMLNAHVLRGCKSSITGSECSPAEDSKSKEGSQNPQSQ

Estrogen receptor beta [5] = biological target: T2, Estrogen receptor beta; assay: blockers of SRC-3 recruitment to ERβ – biochemical, ELISA, streptavidin-HRP readout, orthogonal assay, confirmation (AID 1060)
[6] = Trypanosoma cruzi growth suppression in host cells – NIH3T3 host cells, beta-gal luminescence, confirmation (AID 2044); assay type: functional, cell-based;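 also: intracellular parasites grown in NIH/3T3 mouse fibroblasts as host cells; luminescent beta-galactosidase reporter signal from transgenic T. cruzi replicating inside host cells; inhibitors lower the luminescence signal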
[7] = NIH3T3 cell viability loss – ATP luminescence, mouse fibroblasts, counter-screen, dose response (AID 2010); assay type: functional, cell-based;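 also: cells exposed to compound for about 90 hours before reading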
Nonstructural protein 1 = Nonstructural protein 1 (Influenza A virus, UniProt Q194T2); assay type: functional, Influenza A virus (A/California/07/2009(H1N1))
Chain of Nonstructural protein 1 (Q194T2 whole entry): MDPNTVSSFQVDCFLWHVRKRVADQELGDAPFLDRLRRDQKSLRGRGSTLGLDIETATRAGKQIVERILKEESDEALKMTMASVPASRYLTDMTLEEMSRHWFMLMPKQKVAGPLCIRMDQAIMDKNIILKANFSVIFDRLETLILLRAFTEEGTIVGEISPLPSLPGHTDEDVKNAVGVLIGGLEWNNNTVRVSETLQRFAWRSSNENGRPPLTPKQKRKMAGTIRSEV

cells [8] = assay: cells
[9] = biological target: NAD-dependent protein deacylase sirtuin-5, mitochondrial (Homo sapiens, UniProt Q9NXA8); assay: sirtuin-5 deacylation blockers, concentration series – biochemical, fluorescence imaging, cherry-pick, set 5, dose response (AID 720591);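 also: desuccinylation of succinyl peptide AMC substrate read as fluorescence after trypsin release; potency of inhibitors that lower fluorescence and may act on trypsin instead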
Chain of NAD-dependent protein deacylase sirtuin-5, mitochondrial (Q9NXA8 whole entry): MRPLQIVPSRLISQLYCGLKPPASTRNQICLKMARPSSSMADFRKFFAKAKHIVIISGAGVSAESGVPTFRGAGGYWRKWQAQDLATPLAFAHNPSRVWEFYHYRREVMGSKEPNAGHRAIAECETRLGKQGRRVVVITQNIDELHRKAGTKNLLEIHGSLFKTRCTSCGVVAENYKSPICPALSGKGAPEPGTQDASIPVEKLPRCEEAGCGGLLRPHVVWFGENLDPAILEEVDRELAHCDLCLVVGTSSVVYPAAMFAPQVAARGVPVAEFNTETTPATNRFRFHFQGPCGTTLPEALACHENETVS

[10] = viability inhibitors of stage V gametocytes – luminescence, dose response (AID 1117278); assay type: functional, cell-based;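 also: gametocytes exposed to compound for 24 hours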
[11] = viability loss in human Jurkat cells – cell-based, luminescence, cytotoxicity control for P. falciparum gametocyte viability project, dose response (AID 1117277); assay type: functional;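 also: potency reflects loss of cellular ATP meaning fewer viable cells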
[12] = biological target: T3, Calpain-2 catalytic subunit (Sus scrofa, UniProt P43367); assay: m-calpain protease blockers, concentration series – biochemical, fluorogenic peptide substrate, dose response (AID 1420); assay type: functional
T3 sequence (P43367 whole entry): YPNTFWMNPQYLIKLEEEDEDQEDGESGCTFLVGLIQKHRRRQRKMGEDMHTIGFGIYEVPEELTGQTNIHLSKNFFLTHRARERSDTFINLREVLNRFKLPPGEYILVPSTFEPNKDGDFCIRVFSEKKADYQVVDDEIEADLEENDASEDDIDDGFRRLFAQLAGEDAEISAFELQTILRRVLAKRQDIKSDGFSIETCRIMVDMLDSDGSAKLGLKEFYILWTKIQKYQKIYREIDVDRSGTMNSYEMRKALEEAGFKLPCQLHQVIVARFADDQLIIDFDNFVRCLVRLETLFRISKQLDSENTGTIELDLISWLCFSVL

[13] = reduced cellular PGC1a acetyl-lysine signal – cell-based, cherry-picked samples, dose response (AID 720514); assay type: functional;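 also: potency may reflect raised or lowered acetylation signal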
[14] = biological target: T4, Polyadenylate-binding protein 1 (Homo sapiens, UniProt P11940); assay: MLLE binding blockers, Cy5 peptide tracer – biochemical, fluorescence polarization, Cy5-PAM2 peptide, secondary, miRNA deadenylation inhibitor project, dose response (AID 602260); assay type: functional; details: read-out: IC50_Mean
T4 sequence (P11940 whole entry, the tested form may be a part): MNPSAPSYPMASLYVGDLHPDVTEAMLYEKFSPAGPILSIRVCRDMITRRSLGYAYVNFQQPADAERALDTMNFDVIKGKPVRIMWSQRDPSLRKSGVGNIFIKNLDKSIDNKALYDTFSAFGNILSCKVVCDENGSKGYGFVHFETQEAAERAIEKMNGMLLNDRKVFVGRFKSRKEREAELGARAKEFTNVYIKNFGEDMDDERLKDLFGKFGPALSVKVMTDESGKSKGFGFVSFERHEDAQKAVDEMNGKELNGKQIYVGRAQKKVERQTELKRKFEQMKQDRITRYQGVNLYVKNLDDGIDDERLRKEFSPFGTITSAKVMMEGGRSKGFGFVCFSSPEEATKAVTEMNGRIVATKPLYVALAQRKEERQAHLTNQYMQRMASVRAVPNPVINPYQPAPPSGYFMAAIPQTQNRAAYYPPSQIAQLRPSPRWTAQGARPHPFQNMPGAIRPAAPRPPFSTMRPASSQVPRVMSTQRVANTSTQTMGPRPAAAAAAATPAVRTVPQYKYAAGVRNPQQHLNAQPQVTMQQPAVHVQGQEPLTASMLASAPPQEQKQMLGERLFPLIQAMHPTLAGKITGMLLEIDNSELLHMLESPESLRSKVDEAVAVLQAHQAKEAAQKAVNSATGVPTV

[15] = biological target: T4, Polyadenylate-binding protein 1; assay: MLLE domain peptide-binding blockers, IC50 – biochemical, fluorescence polarization, FITC-PAM2 peptide, dose response (AID 602259); assay type: functional; details: read-out: IC50_Mean
[16] = biological target: T1, Oxysterols receptor LXR-beta; assay type: functional, cell-based
cells [17] = assay: cells; remark: listed apart in the source
Protein skinhead-1 = biological target: T5, Protein skinhead-1 (Caenorhabditis elegans, UniProt P34707); assay type: functional
T5 sequence (P34707 whole entry): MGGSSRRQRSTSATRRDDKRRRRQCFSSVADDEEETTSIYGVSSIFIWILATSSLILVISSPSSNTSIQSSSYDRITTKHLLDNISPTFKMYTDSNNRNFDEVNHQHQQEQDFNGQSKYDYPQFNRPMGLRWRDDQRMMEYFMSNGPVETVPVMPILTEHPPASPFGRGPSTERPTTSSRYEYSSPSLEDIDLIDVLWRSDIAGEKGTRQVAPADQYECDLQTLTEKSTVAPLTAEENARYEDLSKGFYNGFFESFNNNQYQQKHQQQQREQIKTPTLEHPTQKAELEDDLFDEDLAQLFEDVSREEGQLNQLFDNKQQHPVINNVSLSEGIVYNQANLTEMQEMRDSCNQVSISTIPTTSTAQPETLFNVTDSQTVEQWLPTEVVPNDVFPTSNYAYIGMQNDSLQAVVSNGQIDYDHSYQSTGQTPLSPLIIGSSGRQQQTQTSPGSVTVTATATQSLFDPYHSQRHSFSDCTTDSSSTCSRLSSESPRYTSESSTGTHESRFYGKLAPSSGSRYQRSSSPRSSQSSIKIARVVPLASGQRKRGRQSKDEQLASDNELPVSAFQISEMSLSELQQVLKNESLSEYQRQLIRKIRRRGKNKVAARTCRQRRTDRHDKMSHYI

[18] = biological target: T6, Microphthalmia-associated transcription factor (Homo sapiens, UniProt O75030); assay: reducers of TRPM1 reporter luminescence, concentration series – cell-based, SK-MEL-5, cherry-picked, set 3, MITF inhibitor project, dose response (AID 493073); assay type: functional;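 also: SK-MEL-5 melanoma cells with luciferase driven by the MITF target TRPM1 promoter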
T6 sequence (O75030 whole entry): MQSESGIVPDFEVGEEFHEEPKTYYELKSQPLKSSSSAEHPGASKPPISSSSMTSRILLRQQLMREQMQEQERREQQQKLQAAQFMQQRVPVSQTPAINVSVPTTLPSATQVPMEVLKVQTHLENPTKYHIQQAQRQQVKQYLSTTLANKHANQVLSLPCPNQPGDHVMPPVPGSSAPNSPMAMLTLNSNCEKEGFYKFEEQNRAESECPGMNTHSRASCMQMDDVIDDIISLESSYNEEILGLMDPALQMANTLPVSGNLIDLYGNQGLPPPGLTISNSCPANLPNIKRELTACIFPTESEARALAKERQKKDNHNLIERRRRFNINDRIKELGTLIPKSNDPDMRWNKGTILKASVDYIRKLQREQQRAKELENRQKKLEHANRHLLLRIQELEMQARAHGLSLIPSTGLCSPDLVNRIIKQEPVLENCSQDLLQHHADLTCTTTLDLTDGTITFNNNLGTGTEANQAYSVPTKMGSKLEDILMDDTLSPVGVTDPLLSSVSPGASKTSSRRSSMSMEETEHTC

For Cc1ccc(N/C=C/C(=O)c2ccccc2)cc1Br, the IC50 [1] was > 67.6 µM (inactive) and the EC50 [2] was > 67.6 µM (inactive).

With CC(C)NC1=NN=C(c2ccc(F)cc2)CS1 the EC50 [3] was > 50 µM (active).

In the case of Cc1noc(C)c1S(=O)(=O)N(CC(=O)O)c1ccc2c(c1)OCO2, the IC50 (Estrogen receptor beta [4]) is reported as 9.71 µM (active) and the IC50 (Estrogen receptor beta [5]) is reported as 0.084 µM (not active).

With O=C(Cc1cccs1)Nc1ccc(S(=O)(=O)Nc2ncccn2)cc1 the IC50 (Estrogen receptor beta [4]) was < 1.56 µM (active) and the IC50 (Estrogen receptor beta [5]) was 0.0699 µM (not active).

For Cc1c(C)n(Cc2ccccc2)c2ccc(C(=O)OCCCN(C)C)cc12, the EC50 [6] was < 0.1 µM (active), the EC50 [7] was > 30 µM (not active) and the IC50 (Nonstructural protein 1) was 43.7 µM (active). The EC50 (cells [8]) was 0.153 µM (active).

For CCOC(=O)c1c(NC(=O)Cn2cnc([N+](=O)[O-])n2)sc2c1CCCC2, the EC50 [6] was < 0.1 µM (active), the EC50 [7] was > 60 µM (not active) and the EC50 (cells [8]) was 0.121 µM (active).

For NC(=O)c1ccc(C(F)(F)F)cn1, the AC50 [9] was > 30 µM (inactive).

With CC(=O)Nc1ccccc1-c1nc2ccc(C(=O)N3CCN(c4cc(C)ccc4C)CC3)cc2nc1O the EC50 [3] was > 50 µM (active).

With CCc1ccc(-c2ccc(C(=O)O)c(C)n2)cc1 the IC50 [10] was > 109 µM (inactive) and the IC50 [11] was > 83.2 µM (inactive).

For CCc1sc(C(=O)N2CCc3ccccc32)cc1C, the IC50 [12] was 9.39 µM (not active), the IC50 [1] was > 67.5 µM (inactive) and the EC50 [2] was > 67.5 µM (inactive).

In the case of Cc1ccc(S(=O)(=O)Nc2ccccc2C(=O)NCc2cccnc2)cc1, the AC50 [13] is reported as 25.6 µM (active).

For Cc1cc(C)c(NC(=O)CSc2nc3cc(Br)c[nH]c-3n2)c(C)c1, the AC50 [9] was > 30 µM (inactive).

In the case of Cn1c(CNc2ccc(F)cc2)nc2ccccc21, the IC50 [1] is reported as > 67.5 µM (inactive) and the EC50 [2] is reported as > 67.5 µM (inactive).

In the case of O=C1CCCC(=O)C1CS(=O)(=O)c1ccccc1, the IC50 [14] is reported as > 66 µM (inactive), the IC50 [15] is reported as > 66 µM (inactive) and the IC50 [10] is reported as > 109 µM (inactive). The IC50 [11] was > 83.2 µM (inactive).

With c1ccc(-c2ccc(-c3ccccn3)s2)nc1 the IC50 [1] was > 67.6 µM (inactive), the EC50 [2] was > 67.6 µM (inactive) and the EC50 [16] was > 67.5 µM (inactive). For the same compound, the EC50 (cells [17]) was > 67.5 µM (inactive).

In the case of CC(C)CC(c1nnnn1Cc1ccco1)N1CCN(c2cccc(Cl)c2)CC1 (stereo not given), the EC50 [3] is reported as > 50 µM (active).

For O=C(/C=C\Nc1cccc(F)c1)c1cccs1, the IC50 (Protein skinhead-1) was 28.1 µM (active), the EC50 [16] was > 67.5 µM (inactive) and the EC50 (cells [17]) was > 67.5 µM (inactive).

For NC(=O)CC(NC(=O)c1ccccc1)c1ccc(NCC2CC2)c([N+](=O)[O-])c1 (stereo not given), the IC50 [10] was > 109 µM (inactive) and the IC50 [11] was > 83.3 µM (inactive).

With CCOC(=O)c1c(NS(=O)(=O)c2cccc(OC)c2)sc2c1CCC2 the IC50 [10] was > 109 µM (inactive) and the IC50 [11] was > 83.3 µM (inactive).

With CN(CC(=O)Nc1ccc2c(c1)CCC2)CC(=O)Nc1ccccc1Br the IC50 [10] was > 109 µM (inactive) and the IC50 [11] was > 83.3 µM (inactive).

For CC1C(=O)N2CCCc3cc(S(=O)(=O)NCCc4ccccc4)cc1c32 (stereo not given), the AC50 [9] was > 30 µM (inactive).

In the case of COC(=O)c1ccccc1N(C)S(=O)(=O)c1cc2c(cc1C)OCC(=O)N2, the AC50 [13] is reported as 24.1 µM (active).

In the case of CCc1ccc(NS(=O)(=O)c2c(C)noc2C)cc1, the AC50 [9] is reported as > 30 µM (inactive).

In the case of C/C(=N\Nc1ccc(C)c(Cl)c1)c1cccnc1, the EC50 [3] is reported as > 50 µM (active).

For O=C(N/N=C/c1ccc(-c2ccccc2Cl)o1)c1ccccc1, the EC50 [6] was < 0.1 µM (active), the EC50 [7] was > 60 µM (not active) and the EC50 (cells [8]) was 0.035 µM (active).

In the case of CO[C@H]1CN(C)C(=O)c2cc(NC(=O)NC(C)C)ccc2OC[C@H](C)N(Cc2ccc(-c3ccccn3)cc2)C[C@@H]1C, the AC50 [13] is reported as 22.6 µM (active).

With O=C(N/N=C/c1ccc(N2CCOCC2)cc1)c1ccc(O)cc1 the EC50 [3] was > 50 µM (active).

In the case of Clc1cccc(-c2nc(-c3ccccn3)no2)c1, the AC50 [18] is reported as 5.92 µM (active), the EC50 [16] is reported as > 67.5 µM (inactive) and the EC50 (cells [17]) is reported as > 67.5 µM (inactive).
